Experimental data published in patent US5958978A, “Specific cyclooxygenase 2 inhibitor and anti-inflammatory agent” (Kabushiki Kaisha Yakult Honsha, priority 1995, dated 1999).
Read-outs that look alike come from different tables or passages of the source.

Key:
[1] = target: T1, cyclooxygenase 1 (Ovis aries, UniProt P05979); test: biochemical; settings: for Inhibitory effect on cyclooxygenase 1 (in words): 0.01-100 μM
T1 sequence (P05979 25-600): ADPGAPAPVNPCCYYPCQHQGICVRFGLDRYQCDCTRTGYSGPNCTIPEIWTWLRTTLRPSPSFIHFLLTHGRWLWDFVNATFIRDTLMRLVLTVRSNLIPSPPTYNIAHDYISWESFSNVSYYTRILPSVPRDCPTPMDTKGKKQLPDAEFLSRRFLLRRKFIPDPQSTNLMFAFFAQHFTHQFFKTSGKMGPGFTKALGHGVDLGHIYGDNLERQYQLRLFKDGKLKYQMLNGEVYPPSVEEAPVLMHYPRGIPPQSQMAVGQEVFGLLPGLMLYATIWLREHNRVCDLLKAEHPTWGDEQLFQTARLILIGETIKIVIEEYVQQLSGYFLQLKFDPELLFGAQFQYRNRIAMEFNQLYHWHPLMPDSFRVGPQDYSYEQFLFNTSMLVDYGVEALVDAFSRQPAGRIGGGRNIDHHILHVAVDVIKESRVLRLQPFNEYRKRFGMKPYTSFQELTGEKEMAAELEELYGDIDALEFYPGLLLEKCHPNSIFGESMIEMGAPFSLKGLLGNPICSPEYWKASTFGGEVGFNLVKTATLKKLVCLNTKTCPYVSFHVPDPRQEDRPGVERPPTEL
Procedure: (§1) (Specific Inhibitory Effect on Cyclooxygenase)
(§2) After the incubation, 2 μl of a 5 mM solution of arachidonic acid (dissolved in ethanol) were added (end concentration: 100 μM), followed by incubation for additional 5 minutes. After the incubation for 5 minutes, 10 μl of a 22 mM solution of ferrous chloride were added, and the resultant mixture was cooled down to 0° C. to stop the reaction. After stopping the reaction, the reaction mixture was centrifuged at 10,000×g for 5 minutes to determine the amount of prostaglandin E2 in the supernatant liquid thereof in accordance with the enzyme immunoassay. The cyclooxygenase-inhibiting effect of each test agent was determined by the average value of the amounts of prostaglandin E2 produced, which were obtained by repeating the above process twice, and the amount of prostaglandin E2 produced by using DMSO in place of the test agent to conduct the same treatment as described above.

[2] = tested on: Production of Thromboxane B2 in Platelet; test: Effect on production of thromboxane B2 in platelet; type: cell-based, rabbit; settings: for inhibitory effect on the production of thromboxane B2 (in words): 0.001-100 μM; for inhibition at 0.001 µM / inhibition at 0.01 µM / inhibition at 0.1 µM / inhibition at 1 µM / inhibition at 10 µM / inhibition at 100 µM: Oryctolagus cuniculus, Platelet, rabbit platelets, read-out: Percent inhibition of thromboxane B2
Procedure: (Effect of 4'-Hydroxydiclofenac on Production of Thromboxane B2 in Platelet)
Fresh blood [adding 1 volume of ACD (acid-citrate dextrose; consisting of 65 mM citric acid, 85 mM sodium citrate and 110 mM glucose) to 9 volumes of the blood] collected from the heart of a rabbit under Nembutal anesthesia was centrifuged at 200 ×g for 10 minutes to collect the supernatant liquid thereof. The supernatant liquid was centrifuged at 700 ×g for 10 minutes, and precipitated platelets were suspended in an isotonic trishydrochloric acid buffer solution [50 mM tris(hydroxymethyl)aminomethane, 150 mM NaCl, 1 mM EDTA (ethylenediaminetetraacetic acid) and 5 mM glucose; pH: 7.2]. The suspension was further centrifuged at 700 ×g for 10 minutes and washed. […] The thus-adjusted platelet suspension was poured in 1-ml portions into test tubes. […] After the incubation, 10 μl (end concentration: 2 mM) of 200 mM CaCl2 and 5 μl (end concentration: 5 μM) of 1 mM arachidonic acid were added, followed by incubation for additional 5 minutes. After the incubation, the test tube was transferred to an ice bath to stop the reaction. The test tube was centrifuged at 1,500 ×g and 4° C. for 10 minutes. After the supernatant liquid thereof was filtered through a membrane filter (pore size: 0.22 μm, MILLIPORE), the amount of thromboxane B2 in the filtrate was determined in accordance with the enzyme immunoassay. The effect of each test agent on the production of thromboxane B2 in the platelet was determined by the average value of the amounts of thromboxane B2 produced, which were obtained by repeating the above process 3 times, and the amount of thromboxane B2 produced by using DMSO in place of the test agent to conduct the same treatment as described above.

[3] = tested on: Production of Prostaglandin E2 by Stimulation of Human Synovial Cell by IL-1β; test: Effect on production of prostaglandin E2 by stimulation of human synovial cell by IL-1β; type: cell-based; settings: for inhibition at 0.001 µM / inhibition at 0.01 µM / inhibition at 0.1 µM / inhibition at 1 µM / inhibition at 10 µM / inhibition at 100 µM: Synovial cell, human synovial cells, IL-1β, 22 hours, read-out: Percent inhibition of prostaglandin E2
Procedure: (Effect of 4'-Hydroxydiclofenac on Production of Prostaglandin E2 by Stimulation of Human Synovial Cell by IL-1β)
Synovial tissue obtained from a patient suffering from chronic articular rheumatism was placed in a Petri dish, cut and shredded, to which a 0.2% solution of collagenase was added. The mixture was left over for 2 hours under conditions of 5% CO2 and 37° C. An equiamount of a 0.25% solution of trypsin was further added, and the resultant mixture was left over for 2 hours. After cells isolated were collected and centrifuged (170 ×g, 10 minutes) to remove the supernatant liquid thereof, a medium [obtained by adding 10% FCS (fetal calf serum), 2 mM glutamine, 100 U/ml of penicillin, 100 μg/ml of streptomycin and 25 ng/ml of Fungizone to DMEM (Dulbecco modified minimum essential medium)] was added to the cells to wash them once. The cells were suspended in the medium, and the suspension was poured into a Petri dish and cultured under conditions of 5% CO2 and 37° C. Cells adhered to the bottom of the Petri dish were provided as synovial cells. The cells (1×10^5 cells/ml) were poured in 1-ml portions into wells of a 24-well plate and cultured under conditions of 5% CO2 and 37° C. After the cells were proliferated to an extent that they covered almost the entire surface of each well, the medium was changed to an SFM-101 medium (product of Nissui Seiyaku K.K.) containing 1% FCS. […] Furthermore, 10 μl (end concentration: 200 pg/ml) of a solution of IL-1βand 10 μl (end concentration: 10 μM) of arachidonic acid were added to conduct culture for 22 hours under conditions of 5% CO2 and 37° C. After the culture, the supernatant liquid thereof was collected and filtered through a membrane filter (pore size: 0.22 μm, MILLIPORE), thereby determining the amount of prostaglandin E2 in the filtrate in accordance with the enzyme immunoassay. The effect of each test agent on the production of prostaglandin E2 by the human synovial cells was determined by the average value of the amounts of prostaglandin E2 produced, which were obtained by repeating the above process 3 times, and the amount of prostaglandin E2 produced by using DMSO in place of the test agent to conduct the same treatment as described above.

[4] = target: T2, cyclooxygenase 2 (Homo sapiens, UniProt P35354)
T2 sequence (P35354 18-604): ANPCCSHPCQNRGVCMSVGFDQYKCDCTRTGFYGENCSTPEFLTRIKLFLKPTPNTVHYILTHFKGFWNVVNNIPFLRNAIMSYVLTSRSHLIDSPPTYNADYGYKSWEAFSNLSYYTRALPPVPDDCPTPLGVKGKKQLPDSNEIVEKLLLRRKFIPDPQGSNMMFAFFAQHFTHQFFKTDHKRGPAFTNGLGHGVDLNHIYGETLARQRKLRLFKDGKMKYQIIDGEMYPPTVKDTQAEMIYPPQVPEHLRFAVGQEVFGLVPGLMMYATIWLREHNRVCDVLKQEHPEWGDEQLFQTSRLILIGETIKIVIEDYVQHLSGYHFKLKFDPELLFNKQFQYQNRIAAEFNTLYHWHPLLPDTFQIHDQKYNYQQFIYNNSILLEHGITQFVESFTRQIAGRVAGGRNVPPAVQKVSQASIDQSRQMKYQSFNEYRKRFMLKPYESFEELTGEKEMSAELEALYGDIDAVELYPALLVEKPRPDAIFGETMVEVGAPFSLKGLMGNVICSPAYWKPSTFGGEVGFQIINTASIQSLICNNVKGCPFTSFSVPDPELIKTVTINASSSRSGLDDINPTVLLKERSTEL
Procedure: as §1, §2

[5] = read-out: Percent inhibition of cyclooxygenase 1

SMILES | Inhibitory effect on cyclooxygenase 1 (in words) [1] | inhibitory effect on the production of thromboxane B2 (in words) [2] | inhibition at 0.001 µM [2] [%] | inhibition at 0.01 µM [2] [%] | inhibition at 0.1 µM [2] [%] | inhibition at 1 µM [2] [%] | inhibition at 10 µM [2] [%] | inhibition at 100 µM [2] [%] | inhibition at 0.001 µM [3] [%] | inhibition at 0.01 µM [3] [%] | inhibition at 0.1 µM [3] [%] | inhibition at 1 µM [3] [%] | inhibition at 10 µM [3] [%] | inhibition at 100 µM [3] [%] | further results
O=C(O)Cc1ccccc1Nc1c(Cl)cccc1Cl [Diclofenac] | Inhibitory effects on cyclooxygenase 1 and cyclooxygenase 2 are recognized | an inhibitory effect on the production of thromboxane B2 is recognized | 46 | 70 | 68 | 77 | 93 | 99 | 14 | 61 | 99 | 100 | 100 | 100 | inhibition at 0.01 µM [1, 5]: 25%; inhibition at 0.1 µM [1, 5]: 25%; inhibition at 1 µM [1, 5]: 38%; inhibition at 10 µM [1, 5]: 57%; inhibition at 100 µM [1, 5]: 87%
COc1ccc2c(c1)c(CC(=O)O)c(C)n2C(=O)c1ccc(Cl)cc1 [Indomethacin] |  | an inhibitory effect on the production of thromboxane B2 is recognized | 2 | 50 | 76 | 77 | 78 | 78 | -3 | 5 | 62 | 100 | 100 | 100 | 
O=C(O)Cc1ccccc1Nc1c(Cl)cc(O)cc1Cl [4'-Hydroxydiclofenac, 2-(2,6-dichloro-4-hydroxyanilino)phenylacetic acid] | no inhibitory effect on cyclooxygenase 1 is recognized | clearly weak compared with indomethacin | -25 | -25 | 0 | 7 | 15 | 77 | -3 | 0 | 35 | 100 | 100 | 100 | Percent inhibition of cyclooxygenase 2 ([4]; 0.01 μM): 21%; Percent inhibition of cyclooxygenase 2 ([4]; 0.1 μM): 18%; Percent inhibition of cyclooxygenase 2 ([4]; 1 μM): 22%; Percent inhibition of cyclooxygenase 2 ([4]; 10 μM): 82%; Percent inhibition of cyclooxygenase 2 ([4]; 100 μM): 90%; Inhibitory effect on cyclooxygenase 2 (in words) ([4]; 0.01-100 μM): only an inhibitory effect on the cyclooxygenase 2 activity is recognized; Percent inhibition of cyclooxygenase 1 ([1]; 0.01 μM): 0%; Percent inhibition of cyclooxygenase 1 ([1]; 0.1 μM): 0%; Percent inhibition of cyclooxygenase 1 ([1]; 1 μM): 13%; Percent inhibition of cyclooxygenase 1 ([1]; 10 μM): 3%; Percent inhibition of cyclooxygenase 1 ([1]; 100 μM): 15%; inhibitory effect on prostaglandin E2 (in words) ([3]; 0.001-100 μM, compared with indomethacin): almost comparable to indomethacin
